Laboratory results as given in US20250382332A1, “NOVEL ALPHA-FACTOR BASED PEPTIDES WITH ANTIFUNGAL ACTIVITY” (INVAIO SCIENCES, INC., priority 2024, published 2025).
Peptide text beside a SMILES is read from it.

Tested on: Botrytis cinerea (B05.10)
Test: Resazurin antifungal assay of 180 alpha-factor peptide variants towards Botrytis (Example 2)
Format: cell-based
Details: % inhibition of fungal growth, Botrytis conidia, resazurin; for Inhibition at 50 μM: peptide 50 μM; for Inhibition at 100 μM: peptide 100 μM
Procedure, shortened: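 B. cinerea B05.10 conidia (5000/well) were exposed to peptides at 100, 50, 20, 15 and 10 μM final for 24 h at 20° C. Resazurin was then added and fluorescence read at 570/620 nm. Percent growth inhibition was calculated against conidia-only wells, with four technical replicates.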

| Structure (SMILES) | Inhibition at 50 μM [%] | Inhibition at 100 μM [%] |
| --- | --- | --- |
| CSCC[C@H](NC(=O)CNC(=O)[C@H](CCC(N)=O)NC(=O)CNC(=O)[C@@H]1CCCN1C(=O)[C@H](CCCCN)NC(=O)[C@H](Cc1ccccc1)NC(=O)[C@H](CCC(=O)O)NC(=O)[C@H](CC(C)C)NC(=O)[C@H](CC(=O)O)NC(=O)[C@H](Cc1c[nH]cn1)NC(=O)[C@@H]1CCCN1)C(=O)N[C@@H](Cc1ccc(O)cc1)C(=O)O [compound 126] (H-PHDLEFKPGQGMY-OH; N-terminus and C-terminus assumed) | <90 | <90 |
| CC[C@H](C)[C@H](NC(=O)[C@H](CO)NC(=O)[C@H](CCCCN)NC(=O)[C@@H](N)Cc1c[nH]c2ccccc12)C(=O)N[C@@H](CC(N)=O)C(=O)N[C@@H](Cc1ccccc1)C(=O)N[C@@H](CCCCN)C(=O)N1CCC[C@H]1C(=O)NCC(=O)N[C@@H](CCC(N)=O)C(=O)N1CCC[C@H]1C(=O)N[C@@H](CCSC)C(=O)N[C@@H](Cc1ccc(O)cc1)C(=O)O [compound 127] (H-WKSINFKPGQPMY-OH; N-terminus and C-terminus assumed) | <90 | <90 |
| CSCC[C@H](NC(=O)[C@@H]1CCCN1C(=O)[C@H](CCC(N)=O)NC(=O)CNC(=O)[C@@H]1CCCN1C(=O)[C@H](CC(=O)O)NC(=O)[C@H](Cc1ccccc1)NC(=O)[C@H](CCC(=O)O)NC(=O)[C@@H](NC(=O)[C@H](Cc1c[nH]c2ccccc12)NC(=O)[C@H](Cc1c[nH]cn1)NC(=O)[C@@H]1CCCN1)C(C)C)C(=O)N[C@@H](Cc1ccc(O)cc1)C(=O)O [compound 128] (H-PHWVEFDPGQPMY-OH; N-terminus and C-terminus assumed) | <90 | <90 |
| CSCC[C@H](NC(=O)[C@@H]1CCCN1C(=O)[C@H](CCC(N)=O)NC(=O)CNC(=O)[C@@H]1CCCN1C(=O)[C@H](Cc1c[nH]cn1)NC(=O)[C@H](CC(C)C)NC(=O)[C@H](CCC(=O)O)NC(=O)[C@H](CC(C)C)NC(=O)CNC(=O)[C@H](CCC(N)=O)NC(=O)[C@@H](N)Cc1c[nH]c2ccccc12)C(=O)N[C@@H](Cc1ccc(O)cc1)C(=O)O [compound 129] (H-WQGLELHPGQPMY-OH; N-terminus and C-terminus assumed) | <90 | <90 |
| CSCC[C@H](NC(=O)[C@@H]1CCCN1C(=O)[C@H](CO)NC(=O)CNC(=O)[C@@H]1CCCN1C(=O)[C@H](CCCCN)NC(=O)[C@H](CC(C)C)NC(=O)[C@@H](NC(=O)[C@H](CC(C)C)NC(=O)[C@@H](NC(=O)[C@H](CCC(=O)O)NC(=O)[C@@H](N)Cc1c[nH]c2ccccc12)C(C)C)[C@@H](C)O)C(=O)N[C@@H](Cc1ccc(O)cc1)C(=O)O [compound 130] (H-WEVLTLKPGSPMY-OH; N-terminus and C-terminus assumed) | <90 | <90 |
| CC[C@H](C)[C@H](NC(=O)[C@H](CC(C)C)NC(=O)[C@H](Cc1c[nH]cn1)NC(=O)[C@@H]1CCCN1)C(=O)N[C@@H](CCC(N)=O)C(=O)N[C@@H](CC(C)C)C(=O)NCC(=O)N[C@@H](CC(C)C)C(=O)NCC(=O)N[C@@H](CCC(N)=O)C(=O)N1CCC[C@H]1C(=O)N[C@@H](CCSC)C(=O)N[C@@H](Cc1ccc(O)cc1)C(=O)O [compound 131] (H-PHLIQLGLGQPMY-OH; N-terminus and C-terminus assumed) | <90 | <90 |
| CSCC[C@H](NC(=O)[C@H](Cc1c[nH]cn1)NC(=O)[C@@H]1CCCN1)C(=O)N[C@H](C(=O)N[C@@H](CCCNC(=N)N)C(=O)N[C@@H](CC(C)C)C(=O)N[C@@H](CCCCN)C(=O)N1CCC[C@H]1C(=O)NCC(=O)N[C@@H](CCC(N)=O)C(=O)N1CCC[C@H]1C(=O)N[C@@H](CCSC)C(=O)N[C@@H](Cc1ccc(O)cc1)C(=O)O)C(C)C [compound 132] (H-PHMVRLKPGQPMY-OH; N-terminus and C-terminus assumed) | <90 | 94.13 |
| CC[C@H](C)[C@H](NC(=O)[C@H](CC(C)C)NC(=O)[C@H](CCC(N)=O)NC(=O)CNC(=O)[C@H](Cc1c[nH]c2ccccc12)NC(=O)CNC(=O)[C@@H](N)CCCCN)C(=O)N1CCC[C@H]1C(=O)NCC(=O)N[C@@H](CCC(=O)O)C(=O)N1CCC[C@H]1C(=O)N[C@@H](CCSC)C(=O)N[C@@H](Cc1ccc(O)cc1)C(=O)O [compound 133] (H-KGWGQLIPGEPMY-OH; N-terminus and C-terminus assumed) | <90 | <90 |
| CSCC[C@H](NC(=O)[C@@H]1CCCN1C(=O)[C@H](CCC(N)=O)NC(=O)CNC(=O)[C@@H]1CCCN1C(=O)[C@H](CCCCN)NC(=O)[C@H](CC(C)C)NC(=O)[C@H](CCCCN)NC(=O)[C@H](CC(C)C)NC(=O)[C@H](CC(=O)O)NC(=O)CNC(=O)[C@@H](N)Cc1c[nH]c2ccccc12)C(=O)N[C@@H](Cc1ccc(O)cc1)C(=O)O [compound 134] (H-WGDLKLKPGQPMY-OH; N-terminus and C-terminus assumed) | <90 | <90 |
| CSCC[C@H](NC(=O)[C@@H]1CCCN1C(=O)[C@H](CCC(=O)O)NC(=O)CNC(=O)[C@H](CCCNC(=N)N)NC(=O)[C@H](CCC(N)=O)NC(=O)[C@H](CC(C)C)NC(=O)[C@H](CCC(N)=O)NC(=O)CNC(=O)[C@H](Cc1c[nH]c2ccccc12)NC(=O)[C@H](Cc1c[nH]cn1)NC(=O)[C@@H](N)Cc1c[nH]c2ccccc12)C(=O)N[C@@H](Cc1ccc(O)cc1)C(=O)O [compound 135] (H-WHWGQLQRGEPMY-OH; N-terminus and C-terminus assumed) | <90 | <90 |
| CSCC[C@H](NC(=O)[C@@H]1CCCN1C(=O)[C@H](CCC(=O)O)NC(=O)CNC(=O)[C@@H]1CCCN1C(=O)[C@H](CCCCN)NC(=O)[C@H](CC(C)C)NC(=O)[C@H](CCCCN)NC(=O)[C@H](CC(C)C)NC(=O)[C@H](Cc1c[nH]c2ccccc12)NC(=O)[C@H](Cc1c[nH]cn1)NC(=O)[C@@H]1CCCN1)C(=O)N[C@@H](Cc1ccc(O)cc1)C(=O)O [compound 136] (H-PHWLKLKPGEPMY-OH; N-terminus and C-terminus assumed) | <90 | <90 |
| CSCC[C@H](NC(=O)[C@H](Cc1c[nH]cn1)NC(=O)[C@@H](N)Cc1c[nH]c2ccccc12)C(=O)NCC(=O)N[C@@H](CCC(N)=O)C(=O)N[C@@H](CC(C)C)C(=O)N[C@@H](CCCCN)C(=O)N1CCC[C@H]1C(=O)NCC(=O)N[C@@H](CCC(=O)O)C(=O)N1CCC[C@H]1C(=O)N[C@@H](CCSC)C(=O)N[C@@H](Cc1ccc(O)cc1)C(=O)O [compound 137] (H-WHMGQLKPGEPMY-OH; N-terminus and C-terminus assumed) | <90 | <90 |
| CSCC[C@H](NC(=O)[C@H](CCC(N)=O)NC(=O)[C@@H](N)Cc1c[nH]c2ccccc12)C(=O)N[C@@H](CC(C)C)C(=O)N[C@@H](CCCCN)C(=O)N[C@@H](CC(C)C)C(=O)N[C@@H](CCCCN)C(=O)N[C@@H](Cc1ccc(O)cc1)C(=O)NCC(=O)N[C@@H](CCC(N)=O)C(=O)N1CCC[C@H]1C(=O)N[C@@H](CCSC)C(=O)N[C@@H](Cc1ccc(O)cc1)C(=O)O [compound 138] (H-WQMLKLKYGQPMY-OH; N-terminus and C-terminus assumed) | <90 | <90 |
| CC[C@H](C)[C@H](NC(=O)[C@H](CCC(=O)O)NC(=O)CNC(=O)[C@H](Cc1c[nH]c2ccccc12)NC(=O)[C@H](Cc1c[nH]cn1)NC(=O)[C@@H]1CCCN1)C(=O)N[C@@H](CCCCN)C(=O)N1CCC[C@H]1C(=O)NCC(=O)N[C@@H](CCC(N)=O)C(=O)N[C@@H](CO)C(=O)N[C@@H](CCSC)C(=O)N[C@@H](Cc1ccc(O)cc1)C(=O)O [compound 139] (H-PHWGEIKPGQSMY-OH; N-terminus and C-terminus assumed) | <90 | <90 |
| CC[C@H](C)[C@H](NC(=O)[C@H](Cc1ccccc1)NC(=O)[C@H](CS)NC(=O)[C@@H](N)CCCCN)C(=O)N[C@@H](CCC(N)=O)C(=O)N[C@@H](CC(C)C)C(=O)N[C@@H](CCCCN)C(=O)N1CCC[C@H]1C(=O)NCC(=O)N[C@@H](CCC(N)=O)C(=O)N1CCC[C@H]1C(=O)N[C@@H](CCSC)C(=O)N[C@@H](Cc1ccc(O)cc1)C(=O)O [compound 140] (H-KCFIQLKPGQPMY-OH; N-terminus and C-terminus assumed) | <90 | 90.65 |
| CSCC[C@H](NC(=O)[C@@H]1CCCN1C(=O)[C@H](CCC(N)=O)NC(=O)CNC(=O)[C@H](CCCNC(=N)N)NC(=O)[C@H](CCCCN)NC(=O)[C@H](CC(C)C)NC(=O)[C@@H](NC(=O)[C@H](CC(C)C)NC(=O)[C@H](CC(=O)O)NC(=O)[C@H](CCCNC(=N)N)NC(=O)[C@@H]1CCCN1)[C@@H](C)O)C(=O)N[C@@H](Cc1ccc(O)cc1)C(=O)O [compound 141] (H-PRDLTLKRGQPMY-OH; N-terminus and C-terminus assumed) | <90 | <90 |
| CC[C@H](C)[C@H](NC(=O)[C@H](CO)NC(=O)[C@H](CC(C)C)NC(=O)CNC(=O)[C@H](Cc1c[nH]cn1)NC(=O)[C@@H]1CCCN1)C(=O)N[C@@H](Cc1ccc(O)cc1)C(=O)N1CCC[C@H]1C(=O)NCC(=O)N[C@@H](CCC(N)=O)C(=O)N1CCC[C@H]1C(=O)N[C@@H](CCSC)C(=O)N[C@@H](Cc1ccc(O)cc1)C(=O)O [compound 142] (H-PHGLSIYPGQPMY-OH; N-terminus and C-terminus assumed) | <90 | <90 |
| CSCC[C@H](NC(=O)[C@@H]1CCCN1C(=O)[C@H](CCC(N)=O)NC(=O)CNC(=O)[C@@H]1CCCN1C(=O)[C@H](CCCCN)NC(=O)[C@H](CC(C)C)NC(=O)[C@H](CCC(=O)O)NC(=O)CNC(=O)[C@H](Cc1c[nH]c2ccccc12)NC(=O)[C@H](Cc1c[nH]cn1)NC(=O)[C@@H]1CCCN1)C(=O)N[C@@H](Cc1ccc(O)cc1)C(=O)O [compound 143] (H-PHWGELKPGQPMY-OH; N-terminus and C-terminus assumed) | <90 | <90 |
